{"source": "paper PMC3557747", "about": "(Bioorganic & medicinal chemistry letters, 2012)", "key": {"[1]": {"tested_on": "T. gondii/CpIMPDH", "test": "Antiparasitic activity in Toxoplasma gondii model of C. parvum infection", "details": "cultured in hTERT-immortalized human foreskin fibroblasts"}, "[2]": {"tested_on": "human IMPDH2", "details": "read-out: IC50 human IMPDH2; cited from earlier work"}, "[3]": {"tested_on": "human IMPDH1", "details": "read-out: IC50 human IMPDH1; cited from earlier work"}, "[4]": {"details": "50 μM; cited from earlier work"}, "[5]": {"molecular_target": "T1, CpIMPDH (Cryptosporidium parvum, UniProt Q8T6T2)", "T1 sequence (Q8T6T2 1-400)": "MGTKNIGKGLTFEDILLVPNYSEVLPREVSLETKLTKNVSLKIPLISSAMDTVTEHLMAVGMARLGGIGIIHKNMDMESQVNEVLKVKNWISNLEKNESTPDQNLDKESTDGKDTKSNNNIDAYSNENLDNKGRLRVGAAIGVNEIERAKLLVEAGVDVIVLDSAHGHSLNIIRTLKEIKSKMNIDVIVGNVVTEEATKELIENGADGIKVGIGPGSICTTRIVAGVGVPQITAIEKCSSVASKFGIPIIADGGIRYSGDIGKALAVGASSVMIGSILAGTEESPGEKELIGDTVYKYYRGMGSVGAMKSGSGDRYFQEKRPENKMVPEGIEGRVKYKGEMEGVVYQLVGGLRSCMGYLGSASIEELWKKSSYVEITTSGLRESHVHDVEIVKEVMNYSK", "details": "with respect to NAD+, cited from earlier work"}, "[6]": {"molecular_target": "T1, CpIMPDH", "test": "Mechanism of CpIMPDH inhibition with respect to NAD+", "type": "biochemical"}, "[7]": {"tested_on": "C. parvum", "test": "IL12 knockout mouse model of C. parvum infection", "type": "in vivo", "details": "250 mg/kg oral once per day for seven days"}}, "note": "pIC50, pKi: −log10 of the molar value. Where two headings read alike, the source gives them in different places.", "data": [{"molecule": "Cn1nc(CC(=O)Nc2ccc3oc4ccccc4c3c2)c2ccccc2c1=O", "note": "[Compound 54]", "values": [{"measurement": "EC50 Toxo/CpIMPDH", "setting": "[1]", "result": "sub-micromolar activity"}]}, {"molecule": "Cn1nc(CC(=O)Nc2ccc3oc4c(c3c2)CCCC4)c2ccccc2c1=O", "note": "[Compound 53]", "values": [{"measurement": "EC50 Toxo/CpIMPDH", "setting": "[1]", "result": "sub-micromolar activity"}]}, {"molecule": "COc1ccc(NC(=O)Cc2nn(C)c(=O)c3ccccc23)cc1", "note": "[Compound 1]", "values": [{"measurement": "pIC50", "setting": "[2]", "result": "< 4.30"}, {"measurement": "pIC50", "setting": "[3]", "result": "< 4.30"}, {"measurement": "antiparasitic activity", "setting": "[4]", "result": "did not display antiparasitic activity"}, {"measurement": "pKi", "setting": "[5]; read-out: Kis", "result": 5.74}, {"measurement": "mode of inhibition", "setting": "[5]", "result": "mixed inhibitor"}]}, {"molecule": "Cn1nc(CC(=O)Nc2ccc(Br)c(C(F)(F)F)c2)c2ccccc2c1=O", "note": "[Compound 26]", "values": [{"measurement": "EC50 Toxo/CpIMPDH", "setting": "[1]", "result": "sub-micromolar activity"}]}, {"molecule": "Cn1nc(CC(=O)Nc2ccc(Cl)c(C(F)(F)F)c2)c2ccccc2c1=O", "note": "[Compound 27]", "values": [{"measurement": "mode of inhibition", "setting": "[6]", "result": "pure noncompetitive inhibitor"}, {"measurement": "antiparasitic activity in vivo", "setting": "[7]", "result": "no antiparasitic activity was observed"}, {"measurement": "EC50 Toxo/CpIMPDH", "setting": "[1]", "result": "sub-micromolar activity"}]}]}
